Measurements from ChEMBL document CHEMBL1132266, “Synthesis and evaluation of 1-position-modified inositol 1,4,5-trisphosphate analogs” (Bioorg Med Chem Lett, 1999).

Target: Inositol 1,4,5-trisphosphate-gated calcium channel ITPR3 (Homo sapiens, UniProt Q14573)
Assay: Dissociation constant of compound was measured in IP3-binding domain(IBD) of human Inositol 1,4,5-trisphosphate receptor at pH 7.4

Inositol 1,4,5-trisphosphate-gated calcium channel ITPR3, sequence (Q14573 whole entry, the tested form may be a part): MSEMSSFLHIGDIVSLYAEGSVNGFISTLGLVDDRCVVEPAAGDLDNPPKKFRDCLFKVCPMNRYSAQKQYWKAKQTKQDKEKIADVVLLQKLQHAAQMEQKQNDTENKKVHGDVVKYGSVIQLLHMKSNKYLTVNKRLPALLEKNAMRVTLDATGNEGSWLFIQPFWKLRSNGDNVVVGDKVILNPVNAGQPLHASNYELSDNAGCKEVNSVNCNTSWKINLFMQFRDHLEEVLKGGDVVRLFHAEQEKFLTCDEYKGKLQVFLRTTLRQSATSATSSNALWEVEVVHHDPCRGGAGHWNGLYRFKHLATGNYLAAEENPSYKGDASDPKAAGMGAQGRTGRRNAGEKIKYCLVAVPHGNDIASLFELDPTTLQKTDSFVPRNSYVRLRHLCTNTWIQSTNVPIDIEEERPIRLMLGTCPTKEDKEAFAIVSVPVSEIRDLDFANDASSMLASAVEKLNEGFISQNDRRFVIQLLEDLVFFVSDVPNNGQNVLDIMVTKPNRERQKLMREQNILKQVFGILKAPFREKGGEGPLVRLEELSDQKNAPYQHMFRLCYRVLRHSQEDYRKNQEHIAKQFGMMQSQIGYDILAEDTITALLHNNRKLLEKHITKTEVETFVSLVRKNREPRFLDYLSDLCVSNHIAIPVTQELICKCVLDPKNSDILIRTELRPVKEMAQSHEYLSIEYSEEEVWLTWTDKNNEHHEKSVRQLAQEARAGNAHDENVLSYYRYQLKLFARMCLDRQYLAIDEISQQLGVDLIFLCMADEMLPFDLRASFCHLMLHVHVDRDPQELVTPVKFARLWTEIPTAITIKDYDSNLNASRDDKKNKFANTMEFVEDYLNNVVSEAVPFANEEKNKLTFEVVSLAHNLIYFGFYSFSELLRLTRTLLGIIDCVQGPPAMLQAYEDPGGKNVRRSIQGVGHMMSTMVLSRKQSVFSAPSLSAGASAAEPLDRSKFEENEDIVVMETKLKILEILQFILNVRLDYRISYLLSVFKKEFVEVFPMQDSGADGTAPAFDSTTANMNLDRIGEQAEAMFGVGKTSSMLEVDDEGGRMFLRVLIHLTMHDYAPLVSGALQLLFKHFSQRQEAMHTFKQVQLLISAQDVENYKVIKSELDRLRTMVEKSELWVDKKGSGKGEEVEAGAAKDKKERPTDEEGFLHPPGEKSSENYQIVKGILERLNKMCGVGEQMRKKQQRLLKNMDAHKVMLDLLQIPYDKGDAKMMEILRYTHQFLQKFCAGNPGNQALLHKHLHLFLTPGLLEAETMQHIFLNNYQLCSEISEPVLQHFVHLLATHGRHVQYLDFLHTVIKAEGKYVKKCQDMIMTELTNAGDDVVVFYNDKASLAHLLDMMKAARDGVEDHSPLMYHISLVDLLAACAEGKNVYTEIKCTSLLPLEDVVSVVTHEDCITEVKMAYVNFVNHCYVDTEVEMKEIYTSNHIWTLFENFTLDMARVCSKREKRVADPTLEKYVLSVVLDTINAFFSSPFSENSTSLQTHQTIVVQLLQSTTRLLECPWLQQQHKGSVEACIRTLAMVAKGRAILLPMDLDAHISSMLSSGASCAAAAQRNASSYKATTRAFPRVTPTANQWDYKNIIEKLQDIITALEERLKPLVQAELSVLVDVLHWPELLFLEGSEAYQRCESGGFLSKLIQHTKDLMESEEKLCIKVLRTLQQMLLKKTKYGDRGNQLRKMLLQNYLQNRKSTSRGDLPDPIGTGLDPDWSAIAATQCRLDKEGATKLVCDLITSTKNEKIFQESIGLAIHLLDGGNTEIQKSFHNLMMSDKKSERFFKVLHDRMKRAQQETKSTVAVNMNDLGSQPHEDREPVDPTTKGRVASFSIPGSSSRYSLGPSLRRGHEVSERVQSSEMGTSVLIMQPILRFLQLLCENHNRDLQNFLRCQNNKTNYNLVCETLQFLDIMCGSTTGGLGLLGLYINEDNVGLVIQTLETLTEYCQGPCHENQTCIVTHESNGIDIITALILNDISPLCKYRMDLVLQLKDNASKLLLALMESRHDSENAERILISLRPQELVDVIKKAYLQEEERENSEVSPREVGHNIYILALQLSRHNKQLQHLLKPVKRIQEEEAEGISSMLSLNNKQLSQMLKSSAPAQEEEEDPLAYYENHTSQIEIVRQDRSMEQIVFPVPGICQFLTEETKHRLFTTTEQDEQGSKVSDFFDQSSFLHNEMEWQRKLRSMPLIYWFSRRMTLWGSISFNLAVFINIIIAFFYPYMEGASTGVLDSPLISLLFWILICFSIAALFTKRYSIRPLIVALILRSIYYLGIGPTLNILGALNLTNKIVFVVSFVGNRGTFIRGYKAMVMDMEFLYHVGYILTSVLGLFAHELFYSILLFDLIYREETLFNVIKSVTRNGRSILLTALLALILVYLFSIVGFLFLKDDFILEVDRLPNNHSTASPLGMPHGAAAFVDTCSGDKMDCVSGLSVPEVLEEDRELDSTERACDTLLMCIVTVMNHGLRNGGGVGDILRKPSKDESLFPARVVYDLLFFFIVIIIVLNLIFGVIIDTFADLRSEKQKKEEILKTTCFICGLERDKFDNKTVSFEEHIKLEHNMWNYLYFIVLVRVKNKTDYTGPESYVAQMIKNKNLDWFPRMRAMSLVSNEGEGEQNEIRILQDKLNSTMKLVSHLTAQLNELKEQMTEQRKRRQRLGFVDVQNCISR

**Q.** With NCCCOP(=O)(O)O[C@@H]1[C@H](O)[C@H](O)[C@@H](OP(=O)(O)O)[C@H](OP(=O)(O)O)[C@H]1O as the compound, how does the Kd read?
**A.** 1120 nM

**Q.** CN(C)c1ccc(C(=C2C=CC(=[N+](C)C)C=C2)c2ccc(C(=O)NCCCOP(=O)(O)O[C@@H]3[C@H](O)[C@H](O)[C@@H](OP(=O)(O)O)[C@H](OP(=O)(O)O)[C@H]3O)cc2)cc1 was tested. Which Kd did it give?
**A.** 1.17 nM

**Q.** O=C(NCCCOP(=O)(O)O[C@@H]1[C@H](O)[C@H](O)[C@@H](OP(=O)(O)O)[C@H](OP(=O)(O)O)[C@H]1O)Oc1ccc2c(c1)Oc1cc(O)ccc1C21OC(=O)c2ccccc21 (stereo partly drawn) was tested. Which Kd did it give?
**A.** 188 nM
